Data from patent US3988462A (priority 1972, dated 1976).
Converted amounts (≈) assume the structure as drawn. Like-named read-outs stand apart in the source and are kept apart here.

What was measured:
[1] = cited from earlier work
[2] = test system: influenza virus-A2 /Kumamoto; type: in vivo, mice
poliovirus [3] = type: cell-based
mycoplasma = type: cell-based
bacteria = type: cell-based
[4] = Toxicity in mice, repeated intravenous administration; type: in vivo; conditions: 20 mg/kg per day intravenous, once daily for 10 days (total 200 mg/kg)
poliovirus [5] = test: microbe, parasite or virus in culture; type: cell-based
Solubility = type: physicochemical
yeasts = type: cell-based
[6] = test system: Candida parapsiiosis IFO 0708; test: microbe, parasite or virus in culture; type: cell-based; conditions: IFO0708, read-out: Minimum inhibitory concentration
Trychophyton rubrum = test: microbe, parasite or virus in culture; type: cell-based; conditions: read-out: Minimum inhibitory concentration
[7] = test system: Staphylococcus aureus 209P; test: microbe, parasite or virus in culture; type: cell-based; conditions: read-out: Minimum inhibitory concentration
Candida utilis IFO 0396 = test: microbe, parasite or virus in culture; type: cell-based; conditions: Williopsis jadinii, IFO0396; read-out: Minimum inhibitory concentration
Candida tropicalis = test: microbe, parasite or virus in culture; type: cell-based; conditions: read-out: Minimum inhibitory concentration
[8] = test system: mouse ascites tumor cells (Sarcoma 180); test: Antitumor effect in mice; type: in vivo; conditions: intraperitoneally, once daily for six days
Method: 1,000,000 mouse ascites tumor cells (Sarcoma 180) were transplanted intraperitoneally into mice. 24 Hours after the mice were treated with the transplanted tumor cells, the mice were injected with various doses of the antibiotic once daily for six days intraperitoneally. […] It is that the life span of the antibiotic treated mice was prolonged.

[9] = Cytotoxicity, tube dilution method; type: cell-based; conditions: read-out: Minimum Inhibitory Concentration, tube dilution method
Method: (§1) A solution containing Antibiotic TS-885 was prepared as follows to determine the biological activity of Antibiotic TS-885. A 100 mg amount of 3-(5,7-dimethyl-2-hydroxy-4-oxo-6,8-decadienyl)-glutarimide (Antibiotic TS-885) was dissolved in a mixture of 0.6 ml of dimethyl-sulfoxide and 0.02 ml of polyoxyethylene sorbitane monolaurate (EO : 20). A 1.0 ml amount of a stirred saline solution (0.01 M phosphate buffered saline, pH 7.2) was added to the mixture to form a uniform solution which was followed by the addition of 48 ml of the saline solution. By this procedure a stock solution of Antibiotic TS-885 having a concentration of 2 mg/ml was prepared. The stock solution was diluted with the buffer solution for the following tests.
(§2) The cytotoxicity of Antibiotic TS-885 against various tissue culture cells was observed by the following two methods:
b. a tube dilution method
(§3) After 24 hours, the medium was removed and the plates were overlaid with 5 ml of an agar medium and one cylinder was placed on the medium. A 0.25 ml amount of a test sample was placed in the cylinder. After maintaining the plates for 2 hours at room temperature to diffuse Antibiotic TS-885 into the agar, the plate was incubated in the CO2 incubator at 37° C. After 48 hours, the cytotoxic effect of Antibiotic TS-885 was determined by the size of the diameter of the growth inhibitory zone around the cylinder. (2) In the tube dilution method, 2 × 10^5 cells were inoculated into a small test tube, and the tubes were incubated at 37° C for 24 hours. Solutions containing various concentrations of Antibiotic TS-885 were added to tubes of the cells and reincubated at […]. After 48 hours, the degenerated cells were microscopically observed.

Mycoplasma pneumoniae = test: microbe, parasite or virus in culture; type: cell-based; conditions: read-out: Minimum inhibitory concentration
[10] = Serum concentration after intravenous injection in mice; conditions: mouse
[11] = Cytotoxicity, cylinder method; type: cell-based; conditions: read-out: Minimum Inhibitory Concentration, cylinder method
Method: as §1, §2
a. a cylinder method (on a thin seed plate)
a. A 10 ml amount of a cell suspension (3 × 10^5 cells/ml) was seeded in a petri dish having a diameter of 90 mm. The plates were incubated in a CO2 incubator at 37° C.
as §3

[12] = test system: Vesicular stomatitis virus; test: microbe, parasite or virus in culture; type: cell-based
[13] = test system: Saccharomyces sake HUT 7119; test: Antimicrobial activity (Table III); type: cell-based; conditions: HUT7119, Malt Agar (M.A.), read-out: Minimum inhibitory concentration
Method: as §1
(§4) The antimicrobial spectra were observed by the pulp disc diffusion method and the agar streak method, and the results are shown in Tables II and III.

[14] = test system: Brettanomyces anomalus IFO 0648; test: Antimicrobial activity (Table III); type: cell-based; conditions: IFO0648, Malt Agar (M.A.), read-out: Minimum inhibitory concentration
Method: as §1, §4

[15] = test system: Cryptococcus albidus IFO 0378; test: Antimicrobial activity (Table III); type: cell-based; conditions: Naganishia albida, IFO0378; Malt Agar (M.A.); read-out: Minimum inhibitory concentration
Method: as §1, §4

[16] = test system: Saccharomyces fragilis IAM 7160; test: Antimicrobial activity (Table III); type: cell-based; conditions: IAM7160, Malt Agar (M.A.), read-out: Minimum inhibitory concentration
Method: as §1, §4

R. rubra IFO 0001 = test: Antimicrobial activity (Table III); type: cell-based; conditions: Malt Agar (M.A.); read-out: Minimum inhibitory concentration
Method: as §1, §4

Candida alibicans = test: Antimicrobial activity (Table III); type: cell-based; conditions: Sabouraud's agar (S.A.), read-out: Minimum inhibitory concentration
Method: as §1, §4

[17] = test system: Hansenula anomala IFO 0118; test: Antimicrobial activity (Table III); type: cell-based; conditions: IFO0118, Malt Agar (M.A.), read-out: Minimum inhibitory concentration
Method: as §1, §4

Torula rubra var alpa = test: Antimicrobial activity (Table III); type: cell-based; conditions: Malt Agar (M.A.), read-out: Minimum inhibitory concentration
Method: as §1, §4

[18] = test system: Phodotorula glutinis IFO 0754; test: Antimicrobial activity (Table III); type: cell-based; conditions: Malt Agar (M.A.); read-out: Minimum inhibitory concentration
Method: as §1, §4

[19] = test system: Saccharomyces rosei AHU 3174; test: Antimicrobial activity (Table III); type: cell-based; conditions: Torulaspora delbrueckii, AHU3174; Malt Agar (M.A.); read-out: Minimum inhibitory concentration
Method: as §1, §4

[20] = Enterovirus C, read-out: Diameter of plaque free zone
[21] = chicken, chick embryo fibroblast cells, MEM medium
[22] = human, hela s3 cells, YLE medium
[23] = monkey, monkey kidney cells, MEM medium
[24] = Vesicular stomatitis virus, in Gallus gallus, read-out: Diameter of plaque free zone

Question: Which Solubility ([1]; benzene, ethyl acetate, acetone, ethanol) does the source give for C=C/C(C)=C/[C@H](C)C(=O)C[C@H](O)CC1CC(=O)NC(=O)C1 [Streptimidone] here?
Answer: Its Solubility is “Soluble”.

Question: What about the Solubility ([1]; water) of the same molecule?
Answer: The Solubility was “insoluble”.

Question: What does the source list for CC=CC(C)=CC(C)C(=O)CC(O)CC1CC(=O)NC(=O)C1 (stereo not shown) [Antibiotic TS-885, 3-(5,7-dimethyl-2-hydroxy-4-oxo-6,8-decadienyl)-glutarimide]?
Answer: Survival / treated × 100 % ([2]; 7 mg/kg intraperitoneally, survival day 7): 100%; Survival / treated × 100 % ([2]; 7 mg/kg intraperitoneally, survival day 10): 60%; Survival / treated × 100 % ([2]; 7 mg/kg intraperitoneally, survival day 13): 35%; Survival / treated × 100 % ([2]; 7 mg/kg intraperitoneally, survival day 15): 35%; Survival / treated × 100 % ([2]; 7 mg/kg intraperitoneally, survival day 20): 35%; Survival / treated × 100 % ([2]; 22 mg/kg intraperitoneally, survival day 7): 100%; Survival / treated × 100 % ([2]; 22 mg/kg intraperitoneally, survival day 10): 80%; Survival / treated × 100 % ([2]; 22 mg/kg intraperitoneally, survival day 13): 50%; Survival / treated × 100 % ([2]; 22 mg/kg intraperitoneally, survival day 15): 50%; Survival / treated × 100 % ([2]; 22 mg/kg intraperitoneally, survival day 20): 50%; survival rate ([2]; 22 mg/kg, day not stated (footnote to Table VIII)): 50%; Antiviral effect (poliovirus [3]; 0.5 mcg/ml): Toxic; Antiviral effect (poliovirus [3]; 1 mcg/ml): Toxic; Antiviral effect (poliovirus [3]; 10 mcg/ml): Toxic; antimycoplasmal activity (mycoplasma): no antibacterial and antimycoplasmal activity; antibacterial activity (bacteria): no antibacterial; signs of toxicity [4]: No signs of toxicity were observed; Antiviral effect (poliovirus [5]; 12.5 mcg/ml): toxic; Antiviral effect (poliovirus [5]; 25 mcg/ml): toxic; zone of inhibition at 0.5 µg/mL (poliovirus [5]; [20]): 15 mm; zone of inhibition at 1 µg/mL (poliovirus [5]; [20]): 19.4 mm; zone of inhibition at 5 µg/mL (poliovirus [5]; [20]): 25 mm; zone of inhibition at 6.25 µg/mL (poliovirus [5]; [20]): 28.4 mm; zone of inhibition at 12.5 µg/mL (poliovirus [5]; [20]): 29.2 mm; zone of inhibition at 25 µg/mL (poliovirus [5]; [20]): 36 mm; Solubility (Solubility; acetone, chloroform, benzene, ethylacetate, ethanol, methanol, 1% aqueous sodium hydroxide solution, and pyridine): Soluble; Solubility (Solubility; benzene, ethyl acetate, acetone, ethanol 1% NaOH): Soluble; Solubility (Solubility; ether): Sparingly soluble; Solubility (Solubility; water): water insoluble; Solubility (Solubility; water and 5% aqueous hydrochloric acid): Insoluble; inhibitory activity against some yeasts (yeasts): inhibitory activity against some yeasts; MIC [6]: > 100 µg/mL; MIC (Trychophyton rubrum): 1000 µg/mL (≈ 3250 µM); MIC [7]: > 1000 µg/mL; MIC (Candida utilis IFO 0396): 100 µg/mL (≈ 325 µM); MIC (Candida tropicalis): 100 µg/mL (≈ 325 µM); growth of the ascites tumor ([8]; 2.5 mg/mouse per day): inhibits growth of the ascites tumor; life span of the antibiotic treated mice [8]: prolonged; MCC at 48 h [9, 21]: 1 µg/mL; MCC at 48 h [9, 22]: 0.4 µg/mL; MCC at 48 h ([9]; human, p3 hr-1 cells, MEM medium): 0.4 µg/mL; MCC at 48 h [9, 23]: 0.4 µg/mL; MCC at 48 h ([9]; mouse, l-cells, YLE medium): 0.5 µg/mL; MIC (Mycoplasma pneumoniae): > 1000 µg/mL; concentration at 10 min ([10]; 2.5 mg/kg): 1800 ng/mL; concentration at 0.5 h ([10]; 2.5 mg/kg): 580 ng/mL; concentration at 10 min ([10]; 25 mg/kg): 2900 ng/mL; concentration at 0.5 h ([10]; 25 mg/kg): 2400 ng/mL; MCC at 48 h [11, 21]: 0.5 µg/mL; MCC at 48 h [11, 22]: 0.2 µg/mL; MCC at 48 h [11, 23]: 0.2 µg/mL; MCC at 48 h ([11]; mouse, l-cells, YLE medium): 0.25 µg/mL; Antiviral effect ([12]; 20 mcg/ml): toxic; Antiviral effect ([12]; 62.5 mcg/ml): toxic; Antiviral effect ([12]; 100 mcg/ml): toxic; Antiviral effect ([12]; 125 mcg/ml): toxic; Antiviral effect ([12]; 250 mcg/ml): toxic; zone of inhibition at 0.3 µg/mL [12, 24]: 15.4 mm; zone of inhibition at 0.6 µg/mL [12, 24]: 17.4 mm; zone of inhibition at 1.25 µg/mL [12, 24]: 18.1 mm; zone of inhibition at 2.5 µg/mL [12, 24]: 18.9 mm; zone of inhibition at 5 µg/mL [12, 24]: 19.6 mm; zone of inhibition at 10 µg/mL [12, 24]: 22.9 mm; zone of inhibition at 20 µg/mL [12, 24]: 26.2 mm; zone of inhibition at 62.5 µg/mL [12, 24]: 28.8 mm; zone of inhibition at 100 µg/mL [12, 24]: 31.7 mm; zone of inhibition at 125 µg/mL [12, 24]: 33.2 mm; zone of inhibition at 250 µg/mL [12, 24]: 42 mm; MIC [13]: 4 µg/mL (≈ 13 µM); MIC [14]: > 100 µg/mL; MIC [15]: 4 µg/mL (≈ 13 µM); MIC [16]: 20 µg/mL (≈ 65.1 µM); MIC (R. rubra IFO 0001): 20 µg/mL (≈ 65.1 µM); MIC (Candida alibicans): > 100 µg/mL; MIC [17]: 20 µg/mL (≈ 65.1 µM); MIC (Torula rubra var alpa): 4 µg/mL (≈ 13 µM); MIC [18]: 100 µg/mL (≈ 325 µM); MIC [19]: 100 µg/mL (≈ 325 µM)

Question: With NC12CC3CC(CC(C3)C1)C2 [Amantadine, 1,Adamantylamine, reference compound] as the molecule, how does the “Survival / treated × 100 %” value ([2]; 20 mg/kg, survival day 7) read?
Answer: The value was 100%.

Question: What about the “Survival / treated × 100 %” value ([2]; 20 mg/kg, survival day 10) of the same molecule?
Answer: The value was 60%.

Question: And the “Survival / treated × 100 %” value ([2]; 20 mg/kg, survival day 13)?
Answer: The value was 10%.

Question: And the “Survival / treated × 100 %” value ([2]; 20 mg/kg, survival day 15)?
Answer: Its value is 0%.

Question: What about the “Survival / treated × 100 %” value ([2]; 20 mg/kg, survival day 20) of the same molecule?
Answer: The value was 0%.
